Data taken from patent US8859796B1, “Synthetic and purification methods for phosphaplatin compounds and uses thereof” (Phosplatin Therapeutics LLC, priority 2012, dated 2014).

What was measured:
[1] = Stability of saturated aqueous solutions of (R,R)-DACH-2 at pH 2, composition by HPLC; type: physicochemical
Protocol: The resultant suspension was stirred for 30 min and the pH adjusted to 2 with 0.1M nitric acid. The solution was filtered through a 0.45 micron Whatman polypropylene filter to afford a clear solution. Samples of the solution were stored at 25° C. and 5° C. At the time intervals shown in Tables 2 and 3 the solution composition was determined by HPLC.

[2] = Long-term stability study of the recrystallized (R,R)-DACH-2 sample; type: physicochemical; conditions: not exceeding 25° C., humidity 60±5%
Protocol: A long-term stability study of the recrystallized sample was conducted.

[3] = aqueous solution, pH 2, 5° C., 0.1 h
[4] = aqueous solution, pH 2, 5° C., 2 h
[5] = aqueous solution, pH 2, 5° C., 4 h
[6] = aqueous solution, pH 2, 5° C., 8 h
[7] = aqueous solution, pH 2, 5° C., 16 h
[8] = aqueous solution, pH 2, 5° C., 24 h
[9] = aqueous solution, pH 2, 5° C., 48 h
[10] = aqueous solution, pH 2, 25° C., 0.1 h
[11] = aqueous solution, pH 2, 25° C., 2 h
[12] = aqueous solution, pH 2, 25° C., 4 h
[13] = aqueous solution, pH 2, 25° C., 8 h
[14] = aqueous solution, pH 2, 25° C., 16 h
[15] = aqueous solution, pH 2, 25° C., 24 h
[16] = aqueous solution, pH 2, 25° C., 48 h
[17] = after 14 months, initial 0.01% (wt/wt)

(R,R)-DACH-2 [1, 3]: 12.8 HPLC Area %
(R,R)-DACH-2 concentration [1, 3]: 0.1 mg/mL
(R,R)-DACH-2 dimer [1, 3]: 16.8 HPLC Area %
(R,R-DACH-2 water adduct) [1, 3]: 2.5 HPLC Area %
Pt-DACH-diaquo [1, 3]: 68.3 HPLC Area %
(R,R)-DACH-2 [1, 4]: 11.7 HPLC Area %
(R,R)-DACH-2 concentration [1, 4]: 2 mg/mL
(R,R)-DACH-2 dimer [1, 4]: 24.2 HPLC Area %
(R,R-DACH-2 water adduct) [1, 4]: 2.22 HPLC Area %
Pt-DACH-diaquo [1, 4]: 60.9 HPLC Area %
(R,R)-DACH-2 [1, 5]: 10.6 HPLC Area %
(R,R)-DACH-2 concentration [1, 5]: 4 mg/mL
(R,R)-DACH-2 dimer [1, 5]: 29.2 HPLC Area %
(R,R-DACH-2 water adduct) [1, 5]: 2.02 HPLC Area %
Pt-DACH-diaquo [1, 5]: 57.2 HPLC Area %
(R,R)-DACH-2 [1, 6]: 9.6 HPLC Area %
(R,R)-DACH-2 concentration [1, 6]: 8 mg/mL
(R,R)-DACH-2 dimer [1, 6]: 33.5 HPLC Area %
(R,R-DACH-2 water adduct) [1, 6]: 1.81 HPLC Area %
Pt-DACH-diaquo [1, 6]: 53.6 HPLC Area %
(R,R)-DACH-2 [1, 7]: 9.3 HPLC Area %
(R,R)-DACH-2 concentration [1, 7]: 16 mg/mL
(R,R)-DACH-2 dimer [1, 7]: 35.1 HPLC Area %
(R,R-DACH-2 water adduct) [1, 7]: 1.63 HPLC Area %
Pt-DACH-diaquo [1, 7]: 52.5 HPLC Area %
(R,R)-DACH-2 [1, 8]: 9.4 HPLC Area %
(R,R)-DACH-2 concentration [1, 8]: 24 mg/mL
(R,R)-DACH-2 dimer [1, 8]: 36.2 HPLC Area %
(R,R-DACH-2 water adduct) [1, 8]: 1.43 HPLC Area %
Pt-DACH-diaquo [1, 8]: 51.5 HPLC Area %
(R,R)-DACH-2 [1, 9]: 9.3 HPLC Area %
(R,R)-DACH-2 concentration [1, 9]: 48 mg/mL
(R,R)-DACH-2 dimer [1, 9]: 34.7 HPLC Area %
(R,R-DACH-2 water adduct) [1, 9]: 1.27 HPLC Area %
Pt-DACH-diaquo [1, 9]: 53.8 HPLC Area %
(R,R)-DACH-2 [1, 10]: 67.1 HPLC Area %
(R,R)-DACH-2 concentration [1, 10]: 2.38 mg/mL
(R,R)-DACH-2 dimer [1, 10]: 2.9 HPLC Area %
(R,R-DACH-2 water adduct) [1, 10]: 13.3 HPLC Area %
Pt-DACH-diaquo [1, 10]: 16.7 HPLC Area %
(R,R)-DACH-2 [1, 11]: 50.6 HPLC Area %
(R,R)-DACH-2 concentration [1, 11]: 1.75 mg/mL
(R,R)-DACH-2 dimer [1, 11]: 14.3 HPLC Area %
(R,R-DACH-2 water adduct) [1, 11]: 9.3 HPLC Area %
Pt-DACH-diaquo [1, 11]: 25.8 HPLC Area %
(R,R)-DACH-2 [1, 12]: 48.7 HPLC Area %
(R,R)-DACH-2 concentration [1, 12]: 1.59 mg/mL
(R,R)-DACH-2 dimer [1, 12]: 17.4 HPLC Area %
(R,R-DACH-2 water adduct) [1, 12]: 9.2 HPLC Area %
Pt-DACH-diaquo [1, 12]: 24.8 HPLC Area %
(R,R)-DACH-2 [1, 13]: 51.6 HPLC Area %
(R,R)-DACH-2 concentration [1, 13]: 1.41 mg/mL
(R,R)-DACH-2 dimer [1, 13]: 13.4 HPLC Area %
(R,R-DACH-2 water adduct) [1, 13]: 9.5 HPLC Area %
Pt-DACH-diaquo [1, 13]: 25.5 HPLC Area %
(R,R)-DACH-2 [1, 14]: 56.5 HPLC Area %
(R,R)-DACH-2 concentration [1, 14]: 1.04 mg/mL
(R,R)-DACH-2 dimer [1, 14]: 8.1 HPLC Area %
(R,R-DACH-2 water adduct) [1, 14]: 9.8 HPLC Area %
Pt-DACH-diaquo [1, 14]: 25.6 HPLC Area %
(R,R)-DACH-2 [1, 15]: 57.6 HPLC Area %
(R,R)-DACH-2 concentration [1, 15]: 0.88 mg/mL
(R,R)-DACH-2 dimer [1, 15]: 7 HPLC Area %
(R,R-DACH-2 water adduct) [1, 15]: 10.1 HPLC Area %
Pt-DACH-diaquo [1, 15]: 25.3 HPLC Area %
(R,R)-DACH-2 [1, 16]: 59.5 HPLC Area %
(R,R)-DACH-2 concentration [1, 16]: 0.62 mg/mL
(R,R)-DACH-2 dimer [1, 16]: 5.5 HPLC Area %
(R,R-DACH-2 water adduct) [1, 16]: 9.3 HPLC Area %
Pt-DACH-diaquo [1, 16]: 25.9 HPLC Area %
Degradation rate, conclusion in words ([1]; aqueous solution, pH 2, as temperature is reduced (25° C. to 5° C.)): significantly reduced
Stability in aqueous solution, conclusion in words ([1]; saturated aqueous solution, pH 2): readily suffers hydrolytic degradation
(R,R)-DACH-2 purity on re-testing ([2]; after 14 months, HDPE bottle, initial 99.4% w/w): 98.4 % (wt/wt)
chloride content on re-testing [2, 17]: 0.01% (wt/wt)
nitrate content on re-testing [2, 17]: 0.01% (wt/wt)
pyrophosphate content on re-testing ([2]; after 14 months, initial 0.17% (wt/wt)): 0.17% (wt/wt)
DACH-Pt—Cl2 content on re-testing ([2]; after 14 months, initial not detected): not detected
Long-term stability, conclusion in words ([2]; purified solid, 14 months): stable
SMILES: NC1CCCCC1N.O=P([O-])([O-])OP(=O)(O)O.[Pt+2] [(R,R)-DACH-2, cyclohexanediamine (pyrophosphato)platinum (II)]
